# According to PubChem BioAssay (NCI):
#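 Compound exposure: 48 hours, 5 concentrations, 96-well plates. Definition used: TGI = concentration required for complete inhibition of growth.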
# What was measured:
# Test in all cases: NCI anticancer screen, dose series, 48 h
# MALME-3M melanoma = system: MALME-3M melanoma
# HCC-2998 colon = system: HCC-2998 colon
# NCI-H23 lung = system: NCI-H23 lung
# SF-295 CNS = system: SF-295 CNS
# XF 498 CNS = system: XF 498 CNS
# KM20L2 colon = system: KM20L2 colon
# RPMI-8226 leukemia = system: RPMI-8226 leukemia
# HOP-18 NSCLC = system: HOP-18 NSCLC
# CAKI-1 renal = system: CAKI-1 renal
# OVCAR-5 ovarian = system: OVCAR-5 ovarian
# COLO 205 colon = system: COLO 205 colon
# NCI-H522 lung = system: NCI-H522 lung
# SK-MEL-5 melanoma = system: SK-MEL-5 melanoma
# LOX IMVI melanoma = system: LOX IMVI melanoma
# KM12 colon = system: KM12 colon
# SF-268 CNS = system: SF-268 CNS
# A498 renal = system: A498 renal
# K-562 leukemia = system: K-562 leukemia
# OVCAR-3 ovarian = system: OVCAR-3 ovarian
# UACC-257 melanoma = system: UACC-257 melanoma
# SK-MEL-2 melanoma = system: SK-MEL-2 melanoma
# NCI-H226 lung = system: NCI-H226 lung
# DMS 273 small cell lung = system: DMS 273 small cell lung
# CCRF-CEM leukemia = system: CCRF-CEM leukemia
# SK-MEL-28 melanoma = system: SK-MEL-28 melanoma
# OVCAR-4 ovarian = system: OVCAR-4 ovarian
# TK-10 renal = system: TK-10 renal
# 786-0 renal = system: 786-0 renal
# M14 melanoma = system: M14 melanoma
# SW-620 colon = system: SW-620 colon
# SNB-75 CNS = system: SNB-75 CNS
# SF-539 CNS = system: SF-539 CNS
# NCI-H460 lung = system: NCI-H460 lung
# OVCAR-8 ovarian = system: OVCAR-8 ovarian
# IGROV1 ovarian = system: IGROV1 ovarian
# MOLT-4 leukemia = system: MOLT-4 leukemia
# UO-31 renal = system: UO-31 renal
# M19-MEL melanoma = system: M19-MEL melanoma
# A549 NSCLC = system: A549 NSCLC
# UACC-62 melanoma = system: UACC-62 melanoma
# DLD-1 colon = system: DLD-1 colon
# HCT-116 colon = system: HCT-116 colon
# RXF-631 renal = system: RXF-631 renal
# HOP-62 NSCLC = system: HOP-62 NSCLC
# HT29 colon = system: HT29 colon
# ACHN renal = system: ACHN renal
# SNB-78 CNS = system: SNB-78 CNS
# SN12C renal = system: SN12C renal
# HOP-92 NSCLC = system: HOP-92 NSCLC
# SNB-19 CNS = system: SNB-19 CNS
# RXF 393 renal = system: RXF 393 renal
# DMS 114 small cell lung = system: DMS 114 small cell lung
# HCT-15 colon = system: HCT-15 colon
# U251 CNS = system: U251 CNS
# T-47D breast = system: T-47D breast
# SR leukemia = system: SR leukemia
# MDA-N = system: MDA-N
# EKVX NSCLC = system: EKVX NSCLC
# LXFL 529 NSCLC = system: LXFL 529 NSCLC
# NCI/ADR-RES ovarian = system: NCI/ADR-RES ovarian
# PC-3 prostate = system: PC-3 prostate
# MDA-MB-435 = system: MDA-MB-435
# MCF7 breast = system: MCF7 breast
# HS 578T breast = system: HS 578T breast
# SK-OV-3 ovarian = system: SK-OV-3 ovarian
# HL-60(TB) leukemia = system: HL-60(TB) leukemia
# BT-549 breast = system: BT-549 breast
# MDA-MB-231 breast = system: MDA-MB-231 breast
# DU-145 prostate = system: DU-145 prostate
smiles,measurement,setting,value
CN(C)CC1(C)CC/C(=C\c2ccccc2)C1=O (centres undefined),TGI,MALME-3M melanoma,> 100 µM
same,TGI,HCC-2998 colon,> 100 µM
same,TGI,NCI-H23 lung,> 100 µM
same,TGI,SF-295 CNS,> 100 µM
same,TGI,XF 498 CNS,> 100 µM
same,TGI,KM20L2 colon,> 100 µM
same,TGI,RPMI-8226 leukemia,63.2 µM
same,TGI,HOP-18 NSCLC,> 100 µM
same,TGI,CAKI-1 renal,> 100 µM
same,TGI,OVCAR-5 ovarian,> 100 µM
same,TGI,COLO 205 colon,> 100 µM
same,TGI,NCI-H522 lung,> 100 µM
same,TGI,SK-MEL-5 melanoma,> 100 µM
same,TGI,LOX IMVI melanoma,> 100 µM
same,TGI,KM12 colon,> 100 µM
same,TGI,SF-268 CNS,> 100 µM
same,TGI,A498 renal,> 100 µM
same,TGI,K-562 leukemia,> 100 µM
same,TGI,OVCAR-3 ovarian,> 100 µM
same,TGI,UACC-257 melanoma,> 100 µM
same,TGI,SK-MEL-2 melanoma,> 100 µM
same,TGI,NCI-H226 lung,> 100 µM
same,TGI,DMS 273 small cell lung,> 100 µM
same,TGI,CCRF-CEM leukemia,> 100 µM
same,TGI,SK-MEL-28 melanoma,> 100 µM
same,TGI,OVCAR-4 ovarian,> 100 µM
same,TGI,TK-10 renal,> 100 µM
same,TGI,786-0 renal,> 100 µM
same,TGI,M14 melanoma,> 100 µM
same,TGI,SW-620 colon,> 100 µM
same,TGI,SNB-75 CNS,> 100 µM
same,TGI,SF-539 CNS,> 100 µM
same,TGI,NCI-H460 lung,> 100 µM
same,TGI,OVCAR-8 ovarian,> 100 µM
same,TGI,IGROV1 ovarian,> 100 µM
same,TGI,MOLT-4 leukemia,> 100 µM
same,TGI,UO-31 renal,> 100 µM
same,TGI,M19-MEL melanoma,> 100 µM
same,TGI,A549 NSCLC,> 100 µM
same,TGI,UACC-62 melanoma,> 100 µM
same,TGI,DLD-1 colon,> 100 µM
same,TGI,HCT-116 colon,> 100 µM
same,TGI,RXF-631 renal,> 100 µM
same,TGI,HOP-62 NSCLC,> 100 µM
same,TGI,HT29 colon,> 100 µM
same,TGI,ACHN renal,> 100 µM
same,TGI,SNB-78 CNS,> 100 µM
same,TGI,SN12C renal,> 100 µM
same,TGI,HOP-92 NSCLC,> 100 µM
same,TGI,SNB-19 CNS,> 100 µM
same,TGI,RXF 393 renal,> 100 µM
same,TGI,DMS 114 small cell lung,> 100 µM
same,TGI,HCT-15 colon,> 100 µM
same,TGI,U251 CNS,> 100 µM
CS(=O)(=O)Nc1ccc(Nc2c3ccccc3nc3ccccc23)cc1,TGI,MALME-3M melanoma,12.2 µM
same,TGI,HCC-2998 colon,27 µM
same,TGI,T-47D breast,21 µM
same,TGI,NCI-H23 lung,25.8 µM
same,TGI,SF-295 CNS,14.6 µM
same,TGI,XF 498 CNS,14.9 µM
same,TGI,KM20L2 colon,18.8 µM
same,TGI,SR leukemia,3.83 µM
same,TGI,RPMI-8226 leukemia,31 µM
same,TGI,HOP-18 NSCLC,15 µM
same,TGI,CAKI-1 renal,6.94 µM
same,TGI,OVCAR-5 ovarian,21 µM
same,TGI,COLO 205 colon,21 µM
same,TGI,MDA-N,37 µM
same,TGI,NCI-H522 lung,13.7 µM
same,TGI,SK-MEL-5 melanoma,10.4 µM
same,TGI,LOX IMVI melanoma,13.9 µM
same,TGI,KM12 colon,24.7 µM
same,TGI,SF-268 CNS,24.5 µM
same,TGI,A498 renal,16.3 µM
same,TGI,K-562 leukemia,21.2 µM
same,TGI,EKVX NSCLC,29.6 µM
same,TGI,LXFL 529 NSCLC,18.7 µM
same,TGI,OVCAR-3 ovarian,18.7 µM
same,TGI,UACC-257 melanoma,8.44 µM
same,TGI,NCI/ADR-RES ovarian,41.8 µM
same,TGI,PC-3 prostate,19.3 µM
same,TGI,MDA-MB-435,33.7 µM
same,TGI,SK-MEL-2 melanoma,16.1 µM
same,TGI,NCI-H226 lung,7.14 µM
same,TGI,DMS 273 small cell lung,14.3 µM
same,TGI,MCF7 breast,13 µM
same,TGI,CCRF-CEM leukemia,26.4 µM
same,TGI,SK-MEL-28 melanoma,20.7 µM
same,TGI,HS 578T breast,49.3 µM
same,TGI,OVCAR-4 ovarian,17.4 µM
same,TGI,TK-10 renal,9.52 µM
same,TGI,786-0 renal,17.8 µM
same,TGI,M14 melanoma,17.5 µM
same,TGI,SW-620 colon,19.9 µM
same,TGI,SK-OV-3 ovarian,16.1 µM
same,TGI,SNB-75 CNS,19.1 µM
same,TGI,SF-539 CNS,20.2 µM
same,TGI,NCI-H460 lung,6.95 µM
same,TGI,OVCAR-8 ovarian,32.6 µM
same,TGI,IGROV1 ovarian,18.9 µM
same,TGI,MOLT-4 leukemia,10.4 µM
same,TGI,UO-31 renal,12.5 µM
same,TGI,M19-MEL melanoma,15 µM
same,TGI,A549 NSCLC,10.1 µM
same,TGI,UACC-62 melanoma,9 µM
same,TGI,DLD-1 colon,24.7 µM
same,TGI,HCT-116 colon,15 µM
same,TGI,HL-60(TB) leukemia,9.19 µM
same,TGI,RXF-631 renal,16.9 µM
same,TGI,HOP-62 NSCLC,13 µM
same,TGI,HT29 colon,20.5 µM
same,TGI,ACHN renal,2.69 µM
same,TGI,SNB-78 CNS,28.7 µM
same,TGI,SN12C renal,17.1 µM
same,TGI,BT-549 breast,39.4 µM
same,TGI,HOP-92 NSCLC,24.2 µM
same,TGI,SNB-19 CNS,20.3 µM
same,TGI,RXF 393 renal,23.3 µM
same,TGI,MDA-MB-231 breast,17.8 µM
same,TGI,DU-145 prostate,> 23.1 µM
same,TGI,DMS 114 small cell lung,17 µM
same,TGI,HCT-15 colon,23.5 µM
same,TGI,U251 CNS,13.8 µM
CC12CCC[C@@](C)(C(=O)OC3OC(CO)C(O)C(O)C3O)[C@H]1CCC13CC4CC(OC4(CO)[C@H]1O)[C@@H]23 (some centres undefined),TGI,MALME-3M melanoma,> 100 µM
same,TGI,HCC-2998 colon,> 100 µM
same,TGI,NCI-H23 lung,> 100 µM
same,TGI,SF-295 CNS,> 100 µM
same,TGI,XF 498 CNS,> 100 µM
same,TGI,KM20L2 colon,> 100 µM
same,TGI,SR leukemia,> 100 µM
same,TGI,RPMI-8226 leukemia,> 100 µM
same,TGI,HOP-18 NSCLC,> 100 µM
same,TGI,CAKI-1 renal,> 100 µM
same,TGI,OVCAR-5 ovarian,> 100 µM
same,TGI,NCI-H522 lung,> 100 µM
same,TGI,SK-MEL-5 melanoma,> 100 µM
same,TGI,KM12 colon,> 100 µM
same,TGI,SF-268 CNS,> 100 µM
same,TGI,A498 renal,> 100 µM
same,TGI,K-562 leukemia,> 100 µM
same,TGI,EKVX NSCLC,> 100 µM
same,TGI,LXFL 529 NSCLC,> 100 µM
same,TGI,OVCAR-3 ovarian,> 100 µM
same,TGI,UACC-257 melanoma,> 100 µM
same,TGI,SK-MEL-2 melanoma,> 100 µM
same,TGI,NCI-H226 lung,> 100 µM
same,TGI,DMS 273 small cell lung,> 100 µM
same,TGI,CCRF-CEM leukemia,> 100 µM
same,TGI,SK-MEL-28 melanoma,> 100 µM
same,TGI,OVCAR-4 ovarian,> 100 µM
same,TGI,TK-10 renal,> 100 µM
same,TGI,786-0 renal,> 100 µM
same,TGI,M14 melanoma,> 100 µM
same,TGI,SW-620 colon,31 µM
same,TGI,SK-OV-3 ovarian,> 100 µM
same,TGI,SNB-75 CNS,> 100 µM
same,TGI,SF-539 CNS,> 100 µM
same,TGI,NCI-H460 lung,> 100 µM
same,TGI,OVCAR-8 ovarian,> 100 µM
same,TGI,IGROV1 ovarian,> 100 µM
same,TGI,MOLT-4 leukemia,> 100 µM
same,TGI,UO-31 renal,> 100 µM
same,TGI,M19-MEL melanoma,> 100 µM
same,TGI,A549 NSCLC,> 100 µM
same,TGI,UACC-62 melanoma,> 100 µM
same,TGI,DLD-1 colon,> 100 µM
same,TGI,HCT-116 colon,> 100 µM
same,TGI,RXF-631 renal,> 100 µM
same,TGI,HOP-62 NSCLC,> 100 µM
same,TGI,HT29 colon,> 100 µM
same,TGI,ACHN renal,> 100 µM
same,TGI,SNB-78 CNS,> 100 µM
same,TGI,SN12C renal,> 100 µM
same,TGI,HOP-92 NSCLC,> 100 µM
same,TGI,SNB-19 CNS,> 100 µM
same,TGI,RXF 393 renal,> 100 µM
same,TGI,DMS 114 small cell lung,87.9 µM
same,TGI,HCT-15 colon,> 100 µM
same,TGI,U251 CNS,> 100 µM
